# Results: the supplement of paper PMC10307832
# Compound: CC1=NN=C(O1)C2=NN=C(C=C2)N3CCC(CC3)OC4=C(C=CC(=C4)F)Cl + O=C(c1cc(Cc2n[nH]c(=O)c3ccccc23)ccc1F)N1CCN(C(=O)C2CC2)CC1 [Olaparib] (partner 8 µM)
# Experiment: relative viability (nuclei count vs DMSO), 5 days (fraction); higher = more cells survive
# Details: first compound 8 µM
# How it was run: (§1)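 Lung cancer cell lines in 1536-well plates were dosed by pin tool the day after seeding, either with one drug alone or with a fixed anchor-drug dose plus five library-drug doses (not always all listed) in √10 steps. After 5 days, cells were fixed and their nuclei stained in one step (final 0.05% Triton X-100, 1% formaldehyde, 1 ug/ml Hoechst), then counted on 4× images. Relative viability is the nuclei count in treated wells divided by that in vehicle wells. Values are medians of duplicate plates.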
row,Cell Line,relative viability
1,NCI-H1993,0.856
2,NCI-H2228,0.637
3,HCC-15,0.337
4,NCI-H1793,0.738
5,EKVX,0.494
6,LC-2-ad,0.238
7,NCI-H1666,0.664
8,NCI-H1944,0.344
9,NCI-H2085,0.553
10,NCI-H1650,0.597
11,ABC-1,0.638
12,NCI-H358,0.26
13,PC-3 [JPC-3],1.04
14,LOU-NH91,0.883

# Compound: CC1=NN=C(O1)C2=NN=C(C=C2)N3CCC(CC3)OC4=C(C=CC(=C4)F)Cl + CC(=O)c1c(C)c2cnc(Nc3ccc(N4CCNCC4)cn3)nc2n(C2CCCC2)c1=O [Palbociclib] (partner 0.5 µM)
# Experiment: as above
# Details: first compound 0.253 µM
# How it was run: as §1
row,Cell Line,relative viability
1,NCI-H522,1.1
2,SK-LU-1,0.428
3,NCI-H1792,0.358
4,NCI-H2087,0.239
5,NCI-H1355,0.25
6,SW 1573,0.314
7,LCLC-103H,0.343
8,NCI-H727,0.672
9,NCI-H2405,0.319
10,EMC-BAC-2,0.492
11,NCI-H23,0.44
12,HCC-366,0.063
13,NCI-H1755,0.334
14,NCI-H838,0.192
15,LK-2,0.739
16,NCI-H2347,0.459
17,NCI-H2342,0.478
18,SK-MES-1,0.28
19,H3255,0.296
20,COR-L23,0.27
21,COR-L 105,0.403
22,LU99A,0.402
23,ChaGo-K-1,0.625

row,Cell Line,relative viability
1,NCI-H2170,0.196
2,NCI-H460,0.0613
3,HOP-62,0.351
4,HCC-44,0.366
5,LXF-289,0.524
6,BEN,0.452
7,HARA,0.233
8,NCI-H1648,0.258
9,HCC-78,0.454
10,NCI-H647,0.168
11,LCLC-97TM1,0.184
12,NCI-H2126,0.368
13,A-427,0.567
14,NCI-H650,0.323
15,RERF-LC-KJ,0.617
16,NCI-H1915,0.385
17,NCI-H661,0.354
18,NCI-H441,0.206
19,NCI-H1975,0.2
20,NCI-H1395,0.562
21,201T,0.219
22,NCI-H2023,0.28
23,HCC-827,0.317

row,Cell Line,relative viability
1,NCI-H322M,0.471
2,NCI-H1437,0.22
3,PC-14,0.503
4,CAL-12T,0.441
5,NCI-H1734,0.344
6,EPLC-272H,0.281
7,NCI-H3122,0.191
8,NCI-H2009,0.175
9,NCI-H520,0.247
10,NCI-H1651,0.337
11,NCI-H1993,0.523
12,NCI-H2228,0.675
13,HCC-15,0.427
14,NCI-H1793,0.304
15,EKVX,0.282
16,LC-2-ad,0.215
17,NCI-H1666,0.632
18,NCI-H1944,0.238
19,NCI-H2085,0.425
20,NCI-H1650,0.253
21,ABC-1,0.411
22,NCI-H358,0.137
23,PC-3 [JPC-3],0.507

# Same assay, conditions: first compound 0.8 µM
row,Cell Line,relative viability
1,NCI-H522,1.01
2,SK-LU-1,0.334
3,NCI-H1792,0.502
4,NCI-H2087,0.262
5,NCI-H1355,0.359
6,SW 1573,0.372
7,LCLC-103H,0.32
8,NCI-H727,0.708
9,NCI-H2405,0.349
10,EMC-BAC-2,0.513
11,NCI-H23,0.442
12,HCC-366,0.124
13,NCI-H1755,0.451
14,NCI-H838,0.24
15,LK-2,0.818
16,NCI-H2347,0.43
17,NCI-H2342,0.491
18,SK-MES-1,0.355
19,H3255,0.305
20,COR-L23,0.24
21,COR-L 105,0.477
22,LU99A,0.484
23,ChaGo-K-1,0.502
24,NCI-H2170,0.22

row,Cell Line,relative viability
1,NCI-H460,0.0812
2,HOP-62,0.356
3,HCC-44,0.434
4,SW 900,0.574
5,LXF-289,0.549
6,BEN,0.448
7,HARA,0.25
8,NCI-H1648,0.278
9,HCC-78,0.366
10,NCI-H647,0.201
11,NCI-H2126,0.338
12,A-427,0.566
13,NCI-H650,0.318
14,RERF-LC-KJ,0.667
15,NCI-H1915,0.291
16,NCI-H661,0.38
17,NCI-H441,0.257
18,NCI-H1975,0.363
19,NCI-H1395,0.592
20,201T,0.251
21,NCI-H2023,0.277
22,HCC-827,0.283
23,NCI-H322M,0.509
24,NCI-H1437,0.233

row,Cell Line,relative viability
1,PC-14,0.444
2,CAL-12T,0.485
3,NCI-H1734,0.334
4,EPLC-272H,0.314
5,NCI-H3122,0.201
6,NCI-H2009,0.204
7,NCI-H520,0.258
8,NCI-H1651,0.387
9,NCI-H1993,0.579
10,NCI-H2228,0.394
11,HCC-15,0.392
12,NCI-H1793,0.314
13,EKVX,0.257
14,LC-2-ad,0.216
15,NCI-H1666,0.684
16,NCI-H1944,0.278
17,NCI-H2085,0.431
18,NCI-H1650,0.334
19,ABC-1,0.271
20,NCI-H358,0.12
21,PC-3 [JPC-3],0.538
22,LOU-NH91,0.535

# Same assay, conditions: first compound 2.53 µM
row,Cell Line,relative viability
1,NCI-H522,0.65
2,SK-LU-1,0.33
3,NCI-H1792,0.449
4,NCI-H2087,0.21
5,NCI-H1355,0.353
6,SW 1573,0.255
7,LCLC-103H,0.321
8,NCI-H727,0.718
9,NCI-H2405,0.332
10,EMC-BAC-2,0.502
11,NCI-H23,0.466
12,HCC-366,0.132
13,NCI-H1755,0.464
14,NCI-H838,0.222
15,LK-2,0.772
16,NCI-H2347,0.411
17,NCI-H2342,0.458
18,SK-MES-1,0.341
19,H3255,0.309
20,COR-L23,0.241
21,COR-L 105,0.405
22,LU99A,0.443
23,ChaGo-K-1,0.57
24,NCI-H2170,0.22

row,Cell Line,relative viability
1,NCI-H460,0.0833
2,HOP-62,0.265
3,HCC-44,0.412
4,SW 900,0.504
5,LXF-289,0.531
6,BEN,0.487
7,HARA,0.235
8,NCI-H1648,0.263
9,HCC-78,0.473
10,NCI-H647,0.155
11,LCLC-97TM1,0.164
12,NCI-H2126,0.326
13,A-427,0.584
14,NCI-H650,0.32
15,RERF-LC-KJ,0.633
16,NCI-H1915,0.319
17,NCI-H661,0.355
18,NCI-H441,0.282
19,NCI-H1975,0.517
20,NCI-H1395,0.599
21,201T,0.221
22,NCI-H2023,0.233
23,HCC-827,0.355
24,NCI-H322M,0.469

row,Cell Line,relative viability
1,NCI-H1437,0.268
2,PC-14,0.449
3,CAL-12T,0.43
4,NCI-H1734,0.345
5,EPLC-272H,0.277
6,NCI-H3122,0.183
7,NCI-H2009,0.156
8,NCI-H520,0.263
9,NCI-H1651,0.331
10,NCI-H1993,0.644
11,NCI-H2228,0.681
12,HCC-15,0.414
13,NCI-H1793,0.342
14,EKVX,0.286
15,LC-2-ad,0.239
16,NCI-H1666,0.651
17,NCI-H1944,0.249
18,NCI-H2085,0.469
19,NCI-H1650,0.3
20,ABC-1,0.287
21,NCI-H358,0.119
22,PC-3 [JPC-3],0.537
23,LOU-NH91,0.478

# Same assay, conditions: first compound 8 µM
row,Cell Line,relative viability
1,NCI-H522,1.05
2,SK-LU-1,0.47
3,NCI-H1792,0.474
4,NCI-H2087,0.195
5,NCI-H1355,0.353
6,SW 1573,0.262
7,LCLC-103H,0.343
8,NCI-H727,0.596
9,NCI-H2405,0.346
10,EMC-BAC-2,0.513
11,NCI-H23,0.454
12,HCC-366,0.112
13,NCI-H1755,0.4
14,NCI-H838,0.196
15,LK-2,0.614
16,NCI-H2347,0.386
17,NCI-H2342,0.417
18,SK-MES-1,0.352
19,H3255,0.321
20,COR-L23,0.247
21,COR-L 105,0.495
22,LU99A,0.418
23,ChaGo-K-1,0.553
24,NCI-H2170,0.175

row,Cell Line,relative viability
1,NCI-H460,0.0883
2,HOP-62,0.212
3,HCC-44,0.355
4,SW 900,0.463
5,LXF-289,0.458
6,BEN,0.52
7,HARA,0.222
8,NCI-H1648,0.244
9,HCC-78,0.457
10,NCI-H647,0.0745
11,LCLC-97TM1,0.19
12,NCI-H2126,0.353
13,A-427,0.564
14,NCI-H650,0.314
15,RERF-LC-KJ,0.688
16,NCI-H1915,0.266
17,NCI-H661,0.302
18,NCI-H441,0.217
19,NCI-H1975,0.411
20,NCI-H1395,0.626
21,201T,0.21
22,NCI-H2023,0.199
23,HCC-827,0.3
24,NCI-H322M,0.492

row,Cell Line,relative viability
1,NCI-H1437,0.168
2,PC-14,0.44
3,CAL-12T,0.336
4,NCI-H1734,0.324
5,EPLC-272H,0.34
6,NCI-H3122,0.221
7,NCI-H2009,0.158
8,NCI-H520,0.251
9,NCI-H1651,0.346
10,NCI-H1993,0.603
11,NCI-H2228,0.538
12,HCC-15,0.418
13,NCI-H1793,0.301
14,EKVX,0.292
15,LC-2-ad,0.202
16,NCI-H1666,0.627
17,NCI-H1944,0.246
18,NCI-H2085,0.37
19,NCI-H1650,0.292
20,ABC-1,0.28
21,NCI-H358,0.133
22,PC-3 [JPC-3],0.551
23,LOU-NH91,0.632
